Values joined by “and” are separate entries in the source; they are usually repeats but may differ in a detail not shown here. Identical values can stand only once.
Tests used:
Format in all cases: biochemical
TMPRSS2 = TMPRSS2 (Homo sapiens, UniProt O15393); assay: PS-SCL / HyCoSuL substrate specificity screening, TMPRSS2; details: for P2 Position Substrate Activity for TMPRSS2 (percent substrate cleavage/proteolysis): residue fixed at P2 position of substrate library; for P2 Position Substrate Activity for TMPRSS2 (percent substrate cleavage/proteolysis) / P3 Position Substrate Activity for TMPRSS2 (percent substrate cleavage/proteolysis) / P4 Position Substrate Activity for TMPRSS2 (percent substrate cleavage/proteolysis): best recognized amino acid set to 100%; for P3 Position Substrate Activity for TMPRSS2 (percent substrate cleavage/proteolysis) / P3 Position Various Amino Acids Substrate Activity, TMPRSS2 (percent substrate cleavage/proteolysis): residue fixed at P3 position of substrate library; for P4 Position Substrate Activity for TMPRSS2 (percent substrate cleavage/proteolysis) / P4 Position Various Amino Acids Substrate Activity, TMPRSS2 (percent substrate proteolysis/cleavage): residue fixed at P4 position of substrate library
TMPRSS2, sequence (O15393 whole entry): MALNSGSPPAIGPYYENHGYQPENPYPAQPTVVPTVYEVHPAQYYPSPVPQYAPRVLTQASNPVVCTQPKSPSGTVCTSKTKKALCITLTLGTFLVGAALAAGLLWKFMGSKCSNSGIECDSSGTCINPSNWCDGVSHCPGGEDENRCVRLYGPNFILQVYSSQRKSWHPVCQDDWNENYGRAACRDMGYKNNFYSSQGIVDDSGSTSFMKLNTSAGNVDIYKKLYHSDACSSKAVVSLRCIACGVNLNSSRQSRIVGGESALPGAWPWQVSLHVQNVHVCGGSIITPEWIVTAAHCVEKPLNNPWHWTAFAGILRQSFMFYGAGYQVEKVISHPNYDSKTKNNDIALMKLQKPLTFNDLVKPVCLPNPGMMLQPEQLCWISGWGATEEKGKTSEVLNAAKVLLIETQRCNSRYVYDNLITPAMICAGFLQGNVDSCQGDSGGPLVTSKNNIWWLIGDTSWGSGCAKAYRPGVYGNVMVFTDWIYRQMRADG

matriptase = biological target: T1, matriptase (Homo sapiens, UniProt Q9Y5Y6); assay: HyCoSuL P4-P2 substrate specificity screening, matriptase; details: for P2 Position Substrate Activity for matriptase (percent substrate cleavage/proteolysis): residue fixed at P2 position; for P2 Position Substrate Activity for matriptase (percent substrate cleavage/proteolysis) / P3 Position Substrate Activity for matriptase (percent substrate cleavage/proteolysis) / P4 Position Substrate Activity for matriptase (percent substrate cleavage/proteolysis): P1-Arg HyCoSuL, 100 μM, best recognized amino acid set to 100%; for P3 Position Various Amino Acids Substrate Activity, matriptase (percent substrate cleavage/proteolysis): residue fixed at P3 position of substrate library; for P3 Position Substrate Activity for matriptase (percent substrate cleavage/proteolysis): residue fixed at P3 position; for P4 Position Various Amino Acids Substrate Activity, matriptase (percent substrate proteolysis/cleavage): residue fixed at P4 position of substrate library; for P4 Position Substrate Activity for matriptase (percent substrate cleavage/proteolysis): residue fixed at P4 position
T1 sequence (Q9Y5Y6 1-855): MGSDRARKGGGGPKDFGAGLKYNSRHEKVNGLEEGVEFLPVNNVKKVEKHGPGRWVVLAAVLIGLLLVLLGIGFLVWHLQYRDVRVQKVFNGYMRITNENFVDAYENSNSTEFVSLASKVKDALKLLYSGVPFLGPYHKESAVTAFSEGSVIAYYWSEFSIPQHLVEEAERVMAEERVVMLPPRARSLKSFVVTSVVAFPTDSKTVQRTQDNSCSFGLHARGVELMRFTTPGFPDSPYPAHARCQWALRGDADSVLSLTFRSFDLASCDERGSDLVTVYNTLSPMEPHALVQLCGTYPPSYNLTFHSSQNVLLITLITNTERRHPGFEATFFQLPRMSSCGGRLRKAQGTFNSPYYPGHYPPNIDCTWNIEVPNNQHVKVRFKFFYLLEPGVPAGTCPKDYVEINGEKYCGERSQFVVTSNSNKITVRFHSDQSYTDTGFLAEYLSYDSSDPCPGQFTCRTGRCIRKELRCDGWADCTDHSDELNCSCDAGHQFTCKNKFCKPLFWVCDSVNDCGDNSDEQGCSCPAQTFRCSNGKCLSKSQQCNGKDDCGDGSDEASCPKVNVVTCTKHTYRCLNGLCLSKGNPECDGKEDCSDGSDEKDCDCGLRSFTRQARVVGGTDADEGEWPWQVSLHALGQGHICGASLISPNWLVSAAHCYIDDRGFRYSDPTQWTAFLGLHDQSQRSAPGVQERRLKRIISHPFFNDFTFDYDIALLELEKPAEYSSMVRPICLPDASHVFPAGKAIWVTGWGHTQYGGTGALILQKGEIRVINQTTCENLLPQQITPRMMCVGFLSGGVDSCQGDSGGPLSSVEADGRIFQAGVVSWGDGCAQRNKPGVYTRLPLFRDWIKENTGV

hepsin = biological target: T2, hepsin (Homo sapiens, UniProt P05981); assay: HyCoSuL P4-P2 substrate specificity screening, hepsin; details: for P2 Position Substrate Activity for hepsin (percent substrate cleavage/proteolysis): residue fixed at P2 position; for P2 Position Substrate Activity for hepsin (percent substrate cleavage/proteolysis) / P3 Position Substrate Activity for hepsin (percent substrate cleavage/proteolysis) / P4 Position Substrate Activity for hepsin (percent substrate cleavage/proteolysis): P1-Arg HyCoSuL, 100 μM, best recognized amino acid set to 100%; for P3 Position Substrate Activity for hepsin (percent substrate cleavage/proteolysis): residue fixed at P3 position; for P4 Position Substrate Activity for hepsin (percent substrate cleavage/proteolysis): residue fixed at P4 position; for P4 Position Various Amino Acids Substrate Activity, hepsin (percent substrate proteolysis/cleavage): residue fixed at P4 position of substrate library; for P3 Position Various Amino Acids Substrate Activity, hepsin (percent substrate cleavage/proteolysis): residue fixed at P3 position of substrate library
T2 construct: purchased R&D Systems 4776-SE-010
T2 sequence (P05981 163-417 limits assumed): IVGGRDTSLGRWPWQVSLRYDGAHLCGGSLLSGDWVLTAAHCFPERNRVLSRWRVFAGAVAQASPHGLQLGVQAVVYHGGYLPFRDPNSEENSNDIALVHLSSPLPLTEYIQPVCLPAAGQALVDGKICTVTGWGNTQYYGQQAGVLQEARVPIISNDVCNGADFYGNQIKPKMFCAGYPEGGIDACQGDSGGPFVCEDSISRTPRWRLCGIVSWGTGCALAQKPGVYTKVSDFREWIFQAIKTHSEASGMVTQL
T2 sequence (P05981 1-162 partner limits assumed): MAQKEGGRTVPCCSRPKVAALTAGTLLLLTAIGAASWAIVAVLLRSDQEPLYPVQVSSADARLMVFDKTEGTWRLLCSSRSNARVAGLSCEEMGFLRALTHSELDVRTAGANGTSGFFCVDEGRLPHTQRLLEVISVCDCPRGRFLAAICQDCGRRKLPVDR

HGFA = biological target: T3, HGFA (Homo sapiens, UniProt Q04756); assay: HyCoSuL P4-P2 substrate specificity screening, HGFA; details: for P2 Position Substrate Activity for HGFA (percent substrate cleavage/proteolysis): residue fixed at P2 position; for P2 Position Substrate Activity for HGFA (percent substrate cleavage/proteolysis) / P3 Position Substrate Activity for HGFA (percent substrate cleavage/proteolysis) / P4 Position Substrate Activity for HGFA (percent substrate cleavage/proteolysis): P1-Arg HyCoSuL, 100 μM, best recognized amino acid set to 100%; for P3 Position Substrate Activity for HGFA (percent substrate cleavage/proteolysis): residue fixed at P3 position; for P4 Position Substrate Activity for HGFA (percent substrate cleavage/proteolysis): residue fixed at P4 position; for P4 Position Various Amino Acids Substrate Activity, HGFA (percent substrate proteolysis/cleavage): residue fixed at P4 position of substrate library; for P3 Position Various Amino Acids Substrate Activity, HGFA (percent substrate cleavage/proteolysis): residue fixed at P3 position of substrate library
T3 sequence (Q04756 373-655): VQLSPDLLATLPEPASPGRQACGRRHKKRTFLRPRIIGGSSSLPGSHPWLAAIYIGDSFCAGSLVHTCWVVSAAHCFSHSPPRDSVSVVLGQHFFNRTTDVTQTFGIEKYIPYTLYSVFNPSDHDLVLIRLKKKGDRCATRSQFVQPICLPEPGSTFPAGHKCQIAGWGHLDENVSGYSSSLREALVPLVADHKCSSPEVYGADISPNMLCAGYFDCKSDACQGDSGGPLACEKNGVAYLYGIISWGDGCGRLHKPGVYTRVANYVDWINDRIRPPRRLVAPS

Row | Substance | P2 Position Substrate Activity for TMPRSS2 (percent substrate cleavage/proteolysis) (TMPRSS2) | P3 Position Substrate Activity for TMPRSS2 (percent substrate cleavage/proteolysis) (TMPRSS2) | P4 Position Substrate Activity for TMPRSS2 (percent substrate cleavage/proteolysis) (TMPRSS2) | P2 Position Substrate Activity for matriptase (percent substrate cleavage/proteolysis) (matriptase) | P3 Position Various Amino Acids Substrate Activity, matriptase (percent substrate cleavage/proteolysis) (matriptase) | P3 Position Substrate Activity for matriptase (percent substrate cleavage/proteolysis) (matriptase) | P4 Position Various Amino Acids Substrate Activity, matriptase (percent substrate proteolysis/cleavage) (matriptase) | P4 Position Substrate Activity for matriptase (percent substrate cleavage/proteolysis) (matriptase) | P2 Position Substrate Activity for hepsin (percent substrate cleavage/proteolysis) (hepsin) | P3 Position Substrate Activity for hepsin (percent substrate cleavage/proteolysis) (hepsin) | P4 Position Substrate Activity for hepsin (percent substrate cleavage/proteolysis) (hepsin) | P2 Position Substrate Activity for HGFA (percent substrate cleavage/proteolysis) (HGFA) | P3 Position Substrate Activity for HGFA (percent substrate cleavage/proteolysis) (HGFA) | P4 Position Substrate Activity for HGFA (percent substrate cleavage/proteolysis) (HGFA) | P4 Position Various Amino Acids Substrate Activity, TMPRSS2 (percent substrate proteolysis/cleavage) (TMPRSS2) | P4 Position Various Amino Acids Substrate Activity, hepsin (percent substrate proteolysis/cleavage) (hepsin) | P4 Position Various Amino Acids Substrate Activity, HGFA (percent substrate proteolysis/cleavage) (HGFA) | P3 Position Various Amino Acids Substrate Activity, TMPRSS2 (percent substrate cleavage/proteolysis) (TMPRSS2) | P3 Position Various Amino Acids Substrate Activity, hepsin (percent substrate cleavage/proteolysis) (hepsin) | P3 Position Various Amino Acids Substrate Activity, HGFA (percent substrate cleavage/proteolysis) (HGFA)
1 | L-Nle | 11.80% |  |  | 13% | 34% |  | 34% |  | 62.04% |  |  | 45.52% |  |  | 56.06% | 40.93% | 11.76% | 38.11% | 24.09% | 19.15%
2 | L-Nva | 13.88% |  |  | 11% | 25% |  | 30% |  | 58.40% |  |  | 39.80% |  |  | 54.45% | 41.99% | 11.78% | 38.62% | 25.85% | 17.60%
3 | L-Phe | 95.60% |  |  | 39% | 19% |  | 14% |  | 25.22% |  |  | 16.60% |  |  | 31.64% | 30.80% | 9.42% | 14.74% | 2.91% | 13.51%
4 | L-Ser | 19.86% |  |  | 28% | 33% |  | 19% |  | 18.40% |  |  | 3.24% |  |  | 20.12% | 31.63% | 7.04% | 35.95% | 38.70% | 14.57%
5 | L-Thr | 22.02% |  |  | 15% | 31% |  | 14% |  | 70.75% |  |  | 8.87% |  |  | 21.84% | 29.29% | 7.67% | 39.80% | 35.34% | 14.51%

Other lines, results leading:

Row | P2 Position Substrate Activity for TMPRSS2 (percent substrate cleavage/proteolysis) (TMPRSS2) | P3 Position Substrate Activity for TMPRSS2 (percent substrate cleavage/proteolysis) (TMPRSS2) | P4 Position Substrate Activity for TMPRSS2 (percent substrate cleavage/proteolysis) (TMPRSS2) | P2 Position Substrate Activity for matriptase (percent substrate cleavage/proteolysis) (matriptase) | P3 Position Various Amino Acids Substrate Activity, matriptase (percent substrate cleavage/proteolysis) (matriptase) | P3 Position Substrate Activity for matriptase (percent substrate cleavage/proteolysis) (matriptase) | P4 Position Various Amino Acids Substrate Activity, matriptase (percent substrate proteolysis/cleavage) (matriptase) | P4 Position Substrate Activity for matriptase (percent substrate cleavage/proteolysis) (matriptase) | P2 Position Substrate Activity for hepsin (percent substrate cleavage/proteolysis) (hepsin) | P3 Position Substrate Activity for hepsin (percent substrate cleavage/proteolysis) (hepsin) | P4 Position Substrate Activity for hepsin (percent substrate cleavage/proteolysis) (hepsin) | P2 Position Substrate Activity for HGFA (percent substrate cleavage/proteolysis) (HGFA) | P3 Position Substrate Activity for HGFA (percent substrate cleavage/proteolysis) (HGFA) | P4 Position Substrate Activity for HGFA (percent substrate cleavage/proteolysis) (HGFA) | P4 Position Various Amino Acids Substrate Activity, TMPRSS2 (percent substrate proteolysis/cleavage) (TMPRSS2) | P4 Position Various Amino Acids Substrate Activity, hepsin (percent substrate proteolysis/cleavage) (hepsin) | P4 Position Various Amino Acids Substrate Activity, HGFA (percent substrate proteolysis/cleavage) (HGFA) | P3 Position Various Amino Acids Substrate Activity, TMPRSS2 (percent substrate cleavage/proteolysis) (TMPRSS2) | P3 Position Various Amino Acids Substrate Activity, hepsin (percent substrate cleavage/proteolysis) (hepsin) | P3 Position Various Amino Acids Substrate Activity, HGFA (percent substrate cleavage/proteolysis) (HGFA) | Substance
6 | 3.79% | 27.86% | 14.11% | 6% | 81% | 76.43% and 80.67% | 75% | 75.49% | 46.70% | 80.71% | 75.43% | 1.04% | 44.63% | 18.29% |  |  |  |  |  |  | L-Lys
7 | 0.00% | 57.41% |  | 1% | 52% | 51.68% | 10% |  | 11.40% | 68.16% |  | 1.68% | 16.63% |  | 24.40% | 22.86% | 6.64% |  |  |  | L-Met(O)
8 | 0.00% | 22.76% | 12.33% | 4% | 74% | 73.75% and 62.39% | 82% | 82.42% | 78.48% | 79.70% | 84.52% | 0.00% | 54.04% | 20.23% |  |  |  |  |  |  | L-Orn
9 | 16.87% |  |  | 22% | 2% |  | 40% |  | 13.10% |  |  | 2.21% |  |  | 40.11% | 56.00% | 10.30% | 0.00% | 2.09% | 2.04% | L-Pro

From patent publication US20250171495A1, “MUTLI-TARGETED SERINE PROTEASE INHIBITORS FOR TREATMENT OF CANCER AND VIRAL INFECTION” (Washington University, priority 2023, published 2025)
